According to PubChem BioAssay (NCI):
Several values for one entry are separate records, joined by “and”; a condition that tells them apart may be missing. Equal values may be shown once.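 Cultured in 96-well plates, cells were exposed to test compound for 48 hours across five concentrations. Here, GI50 denotes the concentration required for 50% inhibition of growth. TGI marks complete inhibition of growth.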

Experiments:
Assay in all cases: inhibition of tumour cell growth, NCI panel, 48 h
CAKI-1 renal = tested on: CAKI-1 renal
HCC-2998 colon = tested on: HCC-2998 colon
K-562 leukemia = tested on: K-562 leukemia
PC-3 prostate = tested on: PC-3 prostate
RXF 393 renal = tested on: RXF 393 renal
SK-MEL-2 melanoma = tested on: SK-MEL-2 melanoma
SN12C renal = tested on: SN12C renal
SNB-75 CNS = tested on: SNB-75 CNS
SR leukemia = tested on: SR leukemia
UACC-257 melanoma = tested on: UACC-257 melanoma

SMILES | GI50 (CAKI-1 renal) | TGI (CAKI-1 renal) | GI50 (HCC-2998 colon) | TGI (HCC-2998 colon) | GI50 (K-562 leukemia) | TGI (K-562 leukemia) | GI50 (PC-3 prostate) | TGI (PC-3 prostate) | GI50 (RXF 393 renal) | TGI (RXF 393 renal) | GI50 (SK-MEL-2 melanoma) | TGI (SK-MEL-2 melanoma) | GI50 (SN12C renal) | TGI (SN12C renal) | GI50 (SNB-75 CNS) | TGI (SNB-75 CNS) | GI50 (SR leukemia) | TGI (SR leukemia) | GI50 (UACC-257 melanoma) | TGI (UACC-257 melanoma)
O=C1Nc2ccccc2/C1=C/C(=O)c1coc2c1C(=O)c1ccccc1C2=O | 34.2 µM | > 100 µM | > 100 µM | > 100 µM | > 100 µM | > 100 µM | > 100 µM | > 100 µM | > 100 µM | > 100 µM | > 100 µM | > 100 µM | > 100 µM | > 100 µM | 18.9 µM | > 100 µM | 80.4 µM | > 100 µM | > 100 µM | > 100 µM
COc1ccc(C(=O)c2cc(OC)c(OC)c(OC)c2)cc1OC(=O)CCl | 0.151 µM | > 100 µM | 0.0393 µM | > 100 µM | < 0.0123 µM | > 100 µM | < 0.0192 µM | > 100 µM | 0.0441 µM | > 100 µM | 0.436 µM | > 100 µM | 0.0472 µM | > 100 µM | 0.0257 µM | > 100 µM | < 0.01 µM | > 100 µM | > 100 µM | > 100 µM
Nc1c(C(=O)c2cccc(-c3ccncc3)c2)cnn1-c1ccc(F)cc1F | 8.1 µM | > 25 µM | > 21.3 µM | > 25 µM | 2.57 µM | > 25 µM | 4.83 µM | > 25 µM | 8.75 µM | > 25 µM | 6.43 µM | > 19.7 µM | 12.1 µM | > 25 µM | 4.99 µM | > 25 µM | 1.05 µM | > 18.5 µM | 9.47 µM | > 25 µM
COc1cc(OC(=O)c2ccccc2)cc2c1C(=O)C=CC2=O | – | 37 µM | – | – | – | 5.36 µM | – | 28.5 µM | – | 24.6 µM | – | 40.4 µM | – | 45 µM | – | 49.2 µM | – | 5.03 µM | – | 31.6 µM
COC(=O)c1nc(-c2ccccc2)oc1S(=O)(=O)Cc1ccccc1 | 1.84 µM | 3.42 µM | 19 µM | 36.3 µM | 2.07 µM | 5.29 µM | 15 µM | 29.4 µM | 1.87 µM | 3.5 µM | 12.7 µM | 26.9 µM | 4.27 µM | 15.5 µM | 14.1 µM | 27.1 µM | 3.03 µM | 16.5 µM | 13.7 µM | 27.2 µM
COc1cnc2c(c1)C(=O)c1c-2n(CCCn2ccnc2)c(=O)c2cc(F)ccc12 | – | – | 0.361 µM | 79.5 µM | – | – | 0.0576 µM | > 100 µM | 0.0309 µM | 0.171 µM | 0.232 µM | 0.449 µM | < 0.01 µM | > 100 µM | 0.187 µM | 21.8 µM | < 0.01 µM | 0.76 µM | 0.102 µM | 0.493 µM
C#Cc1c(F)ccc2cc(O)cc(-c3ncc4c(N5CC6CCC(C5)N6)nc(OC[C@@]56CCCN5C[C@H](F)C6)nc4c3F)c12 | 17.5 µM | 35.6 µM | 1.32 µM | 17.5 µM | 8.12 µM | > 65.5 µM | 14.8 µM | 33.8 µM | 13.5 µM | 27.5 µM | 16.9 µM | 32.9 µM | 14.8 µM | 31 µM | 17.1 µM | 46.4 µM | 6.53 µM | > 100 µM | 18.1 µM | 35.1 µM
COc1cc(C[C@H]2c3cc(OC)c(OC)cc3CCN2C)c(Oc2cc3c(cc2OC)-c2c(OC)c(OC)cc4c2[C@H](C3)N(C)CC4)cc1OC | 16.1 µM | 23.9 µM and 42.6 µM | 4.9 µM | 15.1 µM and 14.4 µM | 1.49 µM | 15.6 µM and 5.4 µM | – | 33.7 µM | 8.62 µM | 7.35 µM and 21.3 µM | 14.9 µM | 18.5 µM and 28.8 µM | 16.6 µM | 39.8 µM and 30.8 µM | 9.19 µM | 15.3 µM and 24.3 µM | 2.44 µM | 28.6 µM and 7.84 µM | 1.8 µM | 8.76 µM and 3.37 µM
CCN(CC)CCCC(C)Nc1ccnc2cc(Oc3ccccc3)ccc12 (centres undefined) | 13.1 µM and 5.96 µM | 37.9 µM and 36.2 µM | 2.34 µM and 6.92 µM | 7.94 µM and 36.9 µM | 1.87 µM and 2.56 µM | 4.88 µM and 7.92 µM | 8.89 µM and 19.3 µM | 35.5 µM and > 100 µM | 1.65 µM and 3.53 µM | 5.82 µM and 11.2 µM | 3.05 µM and 2.36 µM | 8.96 µM and 5.68 µM | 9.08 µM and 19.6 µM | 39.5 µM and > 100 µM | 2.04 µM and 10.9 µM | 15.1 µM and 25.4 µM | 2.6 µM and 2.27 µM | 12.9 µM and 6.66 µM | 1.95 µM and 2.09 µM | 3.59 µM and 3.94 µM
N#CC(NC12CC3CC(CC(C3)C1)C2)c1ccc2c(c1)OCO2 (centres undefined) | – | > 100 µM | – | > 100 µM | – | > 100 µM | – | > 100 µM | – | > 100 µM | – | > 100 µM | – | > 100 µM | – | > 100 µM | – | > 100 µM | – | > 100 µM
COc1ccc(/C(COc2ccc3c(=O)cc(-c4ccccc4)oc3c2)=N\O)cc1 | 1.83 µM | 28.4 µM | 16.5 µM | > 50 µM | 17.5 µM | > 50 µM | 12.7 µM | > 36.1 µM | 15.8 µM | > 50 µM | 13.3 µM | > 39.1 µM | 9.36 µM | 36.4 µM | > 31.8 µM | > 45.9 µM | 6.61 µM | > 32 µM | 19.6 µM | > 35.5 µM
COc1ccc(-c2cn(-c3cc(OC)c(OC)c(OC)c3)c(SCc3ccccc3)n2)cc1OC | > 100 µM | > 100 µM | 84.7 µM | > 100 µM | > 100 µM | > 100 µM | > 100 µM | > 100 µM | > 100 µM | > 100 µM | > 100 µM | > 100 µM | > 100 µM | > 100 µM | 82.3 µM | > 100 µM | 97.8 µM | > 100 µM | > 100 µM | > 100 µM
COc1cc2ccc(/C=C\[N+](=O)[O-])cc2cc1OC | – | 20 µM | – | 13.6 µM | – | > 24.6 µM | – | 7.28 µM | – | 3.51 µM | – | 9.43 µM | – | 6.3 µM | – | 5.76 µM | – | 5.28 µM | – | > 22.9 µM
